Structures can show the parent of a compound that is named as a salt. Where two headings read alike, the source gives them in different places.
How the values were obtained:
[1] = biological target: T1, human CYP1A2 (Homo sapiens, UniProt P05177)
T1 sequence (P05177 1-516): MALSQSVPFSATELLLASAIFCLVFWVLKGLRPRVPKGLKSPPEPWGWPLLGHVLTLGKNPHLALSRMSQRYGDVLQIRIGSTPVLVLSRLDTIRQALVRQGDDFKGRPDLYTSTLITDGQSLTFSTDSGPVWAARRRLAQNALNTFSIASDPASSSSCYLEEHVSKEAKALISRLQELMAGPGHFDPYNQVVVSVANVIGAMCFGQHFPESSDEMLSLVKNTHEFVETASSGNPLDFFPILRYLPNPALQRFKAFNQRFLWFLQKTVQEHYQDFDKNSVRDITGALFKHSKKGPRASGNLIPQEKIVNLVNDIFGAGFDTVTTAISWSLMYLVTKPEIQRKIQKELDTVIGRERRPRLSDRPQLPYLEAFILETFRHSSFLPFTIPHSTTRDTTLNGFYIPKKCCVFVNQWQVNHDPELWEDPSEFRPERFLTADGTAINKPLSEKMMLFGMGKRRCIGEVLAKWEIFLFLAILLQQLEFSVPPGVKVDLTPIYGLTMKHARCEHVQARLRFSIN

[2] = biological target: T2, human CYP2C19 (Homo sapiens, UniProt P33261)
[3] = biological target: human CYP2D6 (Homo sapiens, UniProt P10635)
[4] = biological target: T3, human CYP2C9 (Homo sapiens, UniProt P11712)
[5] = biological target: CYP3A4 (Homo sapiens, UniProt P08684); assay: biochemical
[6] = biological target: T2, human CYP2C19; assay: biochemical
[7] = biological target: T3, human CYP2C9; assay: biochemical
[8] = CYP3A4 AC50 (half-maximal activity concentration)
[9] = CYP2C19 AC50 (half-maximal activity concentration)
[10] = CYP2C9 AC50 (half-maximal activity concentration)

Chain of human CYP2D6 (P10635 whole entry): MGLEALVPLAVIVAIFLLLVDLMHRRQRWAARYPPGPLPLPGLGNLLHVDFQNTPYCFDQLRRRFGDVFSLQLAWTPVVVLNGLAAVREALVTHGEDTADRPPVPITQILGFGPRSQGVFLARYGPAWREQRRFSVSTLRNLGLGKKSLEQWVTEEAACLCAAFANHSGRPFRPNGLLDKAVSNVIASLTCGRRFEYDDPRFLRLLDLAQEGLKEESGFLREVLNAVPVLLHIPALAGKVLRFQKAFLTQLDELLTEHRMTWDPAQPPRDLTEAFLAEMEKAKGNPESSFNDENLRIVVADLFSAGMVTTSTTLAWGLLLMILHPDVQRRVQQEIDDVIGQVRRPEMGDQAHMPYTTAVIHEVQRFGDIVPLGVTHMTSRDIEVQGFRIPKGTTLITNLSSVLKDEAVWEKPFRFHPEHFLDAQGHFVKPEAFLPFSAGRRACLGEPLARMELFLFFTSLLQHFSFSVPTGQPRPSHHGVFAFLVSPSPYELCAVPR
T3 sequence (P11712 whole entry): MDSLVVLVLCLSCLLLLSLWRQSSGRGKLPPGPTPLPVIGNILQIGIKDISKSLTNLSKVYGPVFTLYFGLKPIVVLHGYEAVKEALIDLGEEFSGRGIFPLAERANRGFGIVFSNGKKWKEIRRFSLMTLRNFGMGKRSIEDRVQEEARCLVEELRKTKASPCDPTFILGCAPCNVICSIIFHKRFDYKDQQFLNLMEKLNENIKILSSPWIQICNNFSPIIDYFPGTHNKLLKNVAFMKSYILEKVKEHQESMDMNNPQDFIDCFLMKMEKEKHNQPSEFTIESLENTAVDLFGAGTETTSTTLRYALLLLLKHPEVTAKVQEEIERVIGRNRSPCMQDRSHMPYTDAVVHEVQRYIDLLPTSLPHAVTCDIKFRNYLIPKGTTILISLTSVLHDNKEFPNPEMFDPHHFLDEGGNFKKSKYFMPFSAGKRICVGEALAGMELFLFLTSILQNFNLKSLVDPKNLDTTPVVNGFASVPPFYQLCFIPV
Chain of CYP3A4 (P08684 whole entry): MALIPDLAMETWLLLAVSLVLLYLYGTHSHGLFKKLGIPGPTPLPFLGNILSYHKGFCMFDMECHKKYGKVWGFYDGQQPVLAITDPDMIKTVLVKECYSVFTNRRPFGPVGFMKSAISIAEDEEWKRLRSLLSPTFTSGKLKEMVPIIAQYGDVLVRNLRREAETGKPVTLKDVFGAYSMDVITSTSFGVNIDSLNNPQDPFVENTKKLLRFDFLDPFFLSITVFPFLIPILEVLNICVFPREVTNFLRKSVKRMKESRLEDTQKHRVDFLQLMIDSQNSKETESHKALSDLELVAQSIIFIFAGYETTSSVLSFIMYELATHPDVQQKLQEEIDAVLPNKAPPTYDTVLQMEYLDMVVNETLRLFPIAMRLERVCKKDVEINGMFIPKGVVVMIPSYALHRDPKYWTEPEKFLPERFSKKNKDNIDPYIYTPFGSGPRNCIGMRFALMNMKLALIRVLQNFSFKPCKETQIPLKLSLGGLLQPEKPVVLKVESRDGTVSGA
T2 sequence (P33261 whole entry): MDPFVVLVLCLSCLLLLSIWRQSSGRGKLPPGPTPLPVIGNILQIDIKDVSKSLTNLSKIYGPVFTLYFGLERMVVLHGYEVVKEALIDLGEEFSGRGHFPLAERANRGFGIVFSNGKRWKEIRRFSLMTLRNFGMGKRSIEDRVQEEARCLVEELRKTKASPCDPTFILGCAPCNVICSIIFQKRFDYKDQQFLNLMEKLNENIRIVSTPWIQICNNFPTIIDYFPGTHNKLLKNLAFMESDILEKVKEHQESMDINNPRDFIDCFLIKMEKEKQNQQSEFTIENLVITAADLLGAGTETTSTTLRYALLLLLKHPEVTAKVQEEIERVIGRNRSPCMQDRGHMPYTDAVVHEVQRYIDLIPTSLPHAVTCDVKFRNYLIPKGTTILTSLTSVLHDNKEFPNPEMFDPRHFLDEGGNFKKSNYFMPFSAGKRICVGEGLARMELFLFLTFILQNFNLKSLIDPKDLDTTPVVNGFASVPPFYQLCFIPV

SMILES | CYP1A2 AC50 (half-maximal activity concentration) [1] | CYP2C19 AC50 (half-maximal activity concentration) [2] | CYP2D6 AC50 (half-maximal activity concentration) [3] | CYP2C9 AC50 (half-maximal activity concentration) [4] | AC50 [5, 8] | AC50 [5] | AC50 [6] | AC50 [7] | AC50 [6, 9] | AC50 [7, 10] | CYP1A2 AC50 (half-maximal activity concentration) ([1]; mean ± standard deviation from three experiments, words = activity call)
Clc1cc(Cl)c(-c2c(Cl)c(Cl)cc(Cl)c2Cl)cc1Cl | Inactive | Inconclusive activator | Inactive | Inactive | 24.9 µM |  |  |  |  |  | 
O=C(O)c1cccc(C(=O)O)c1 [1,3-Benzenedicarboxylic acid] | Inactive | Inactive | Inactive | Inconclusive activator | 9.6 µM |  |  |  |  |  | 
CC(=O)OC(c1ccccc1)C(Cl)(Cl)Cl (stereo not drawn) [2,2,2-Trichloro-1-phenylethyl acetate] | Inactive |  | Inactive |  |  | 23.9 µM | 35.6 µM | 71.3 µM |  |  | 
CCCCC(C=O)CC (stereo not drawn) [2-Ethylhexanal] | Inactive | Inactive | Inactive | Inactive |  | 45.1 µM |  |  |  |  | 
O=C1OC2(c3ccccc31)c1ccc(O)c(Br)c1Oc1c2ccc(O)c1Br [4',5'-Dibromofluorescein] | Inconclusive inhibitor |  | Inactive |  |  | 27.2 µM | 53.7 µM | 46.2 µM |  |  | 
NNS(=O)(=O)c1ccc(Oc2ccc(S(=O)(=O)NN)cc2)cc1 [4,4'-Oxybis(benzenesulfonhydrazide)] | Inactive |  | Inconclusive inhibitor |  |  | 7.84 µM | 16.8 µM | 6 µM |  |  | 
C[C@]12CCC(=O)C=C1CC[C@@H]1[C@@H]2CC[C@]2(C)C(=O)CC[C@@H]12 [4-Androstene-3,17-dione] | Inactive |  | Inconclusive inhibitor |  | 8.36 µM |  |  |  | 33.3 µM | 71.9 µM | 
CCOCN(C(=O)CCl)c1c(C)cccc1CC [Acetochlor] | Inconclusive inhibitor |  | Inactive |  | 8.35 µM |  |  |  | 9.51 µM | 31.2 µM | 
COC(=O)C(C)N(C(=O)Cc1ccccc1)c1c(C)cccc1C (stereo not drawn) [Benalaxyl] | Inactive |  | Inconclusive inhibitor |  | 4.54 µM |  |  |  | 5.23 µM | 22.6 µM | 
NS(=O)(=O)c1ccc(NCc2ccccc2)cc1 [Benzylsulfamide] | Inactive |  | Inactive |  |  | 7.8 ± 0.9 µM | 3.82 ± 1.44 µM | 18.6 ± 5.47 µM |  |  | 
C[C@]12CCC(=O)C=C1C=C[C@@H]1[C@@H]2CC[C@@]2(C)[C@H]1CC[C@@]21CCC(=O)O1 [Canrenone] | Inconclusive inhibitor |  | Inactive |  | 3.48 µM |  |  |  | 1.67 µM | 32.2 µM | 
CC(=O)O[C@]1(C(C)=O)CC[C@H]2[C@@H]3C=C(Cl)C4=CC(=O)CC[C@]4(C)[C@H]3CC[C@@]21C [Chlormadinone acetate] | Inactive |  | Inactive |  | 2.05 µM |  |  |  | 5.67 µM | 14.9 µM | 
CC(=O)O[C@H]1CC[C@@]2(C)C(=CC[C@@H]3[C@@H]2CC[C@]2(C)C(=O)CC[C@@H]32)C1 [Dehydroepiandrosterone acetate] | Inconclusive inhibitor |  | Inactive |  | 6.03 µM |  |  |  | 28.4 µM | 28.4 µM | 
CC1(C)[C@H](C(=O)O[C@H](C#N)c2cccc(Oc3ccccc3)c2)[C@@H]1C=C(Br)Br [Deltamethrin] | Inconclusive inhibitor |  | Inconclusive inhibitor |  | 9.13 µM |  |  |  | 8.8 µM | 3.68 µM | 
CC(=O)OCC(=O)[C@H]1CC[C@H]2[C@@H]3CCC4=CC(=O)CC[C@]4(C)[C@H]3CC[C@]12C [Deoxycorticosterone acetate] | Inactive |  | Inconclusive inhibitor |  | 4.07 µM |  |  |  | 8.43 µM | 5.67 µM | 
O=S(=O)(c1ccccc1)c1ccccc1 [Diphenylsulfone] | Inactive |  | Inactive |  | 28.4 µM |  |  |  | 41.1 µM | 7.39 µM | 
CC(=O)[C@H]1CC[C@H]2[C@@H]3C=CC4=CC(=O)CC[C@@]4(C)[C@@H]3CC[C@]12C [Dydrogesterone] | Inactive |  | Inconclusive inhibitor |  | 4.36 µM |  |  |  | 5.49 µM | 32.4 µM | 
C#C[C@]1(OC(C)=O)CC[C@H]2[C@@H]3CCC4=C[C@@H](OC(C)=O)CC[C@@H]4[C@H]3CC[C@@]21C [Ethynodiol diacetate] | Inactive |  | Inactive |  | 3.91 µM |  |  |  | 23.7 µM | 13.3 µM | 
COC(=O)C(C)N(C(=O)c1ccco1)c1c(C)cccc1C (stereo not drawn) [Furalaxyl] | Inconclusive inhibitor |  | Inactive |  | 14.7 µM |  |  |  | 13.4 µM | 29.5 µM | 
CC(=O)O[C@]1(C(C)=O)CC[C@H]2[C@@H]3C=C(C)C4=CC(=O)CC[C@]4(C)[C@H]3CC[C@@]21C [Megestrol acetate] | Inactive |  | Inactive |  | 2.16 µM |  |  |  | 7.2 µM | 8.11 µM | 
C=C1C[C@H]2[C@@H]3C=C(C)C4=CC(=O)CC[C@]4(C)[C@H]3CC[C@]2(C)[C@@]1(OC(C)=O)C(C)=O [Melengestrol acetate] | Inactive |  | Inactive |  | 4.92 µM |  |  |  | 20.3 µM | 16.8 µM | 
CCCCCCCCOc1ccc(C(=O)c2ccccc2)c(O)c1 [Octabenzone] | Inconclusive inhibitor |  | Inactive |  | 26.2 µM |  |  |  | 53.3 µM | 13.8 µM | 
O=C(O)C(F)(F)C(F)(F)C(F)(F)C(F)(F)C(F)(F)C(F)(F)F [Perfluoroheptanoic acid] | Inactive | Inactive | Inactive |  | 65.8 µM |  |  |  |  | 6.33 µM | 
O=C(O)c1ccccc1C(c1ccc(O)cc1)c1ccc(O)cc1 [Phenolphthalin] | Inconclusive inhibitor | Inactive | Inactive |  | 30.1 µM |  |  |  |  | 56.6 µM | 
CCCCCCCCCCOS(=O)(=O)O [Sodium decyl sulfate] | Inactive | Inactive | Inconclusive inhibitor |  |  | 85.8 µM |  | 38.5 µM |  |  | 
O=C(O)Cc1cc(I)c(Oc2cc(I)c(O)c(I)c2)c(I)c1 [Tetrac] | Inactive | Inactive | Inactive |  |  | 9.83 µM |  | 46.5 µM |  |  | 
CC(C)N(C(=O)SCC(Cl)=C(Cl)Cl)C(C)C [Tri-allate] | Inconclusive inhibitor |  | Inactive |  | 2.47 µM |  |  |  | 10.3 µM | 33 µM | 
O=P(c1ccccc1)(c1ccccc1)c1ccccc1 [Triphenylphosphine oxide] |  |  | Inactive |  |  | 37 ± 2.51 µM | 7.22 ± 1.65 µM | 6.87 ± 0.95 µM |  |  | Inconclusive inhibitor
ClC(Cl)=C(c1ccc(Cl)cc1)c1ccccc1Cl [o,p'-DDE] | Inactive |  | Inactive |  | 22.9 µM |  |  |  | 6.84 µM | 21 µM | 
O=C(O)C(c1ccc(Cl)cc1)c1ccc(Cl)cc1 [p,p'-DDA] | Inactive |  | Inactive |  | 68.4 µM |  |  |  | 24.5 µM | 15.4 µM | 

Reference: paper PMC12155096 (International Journal of Molecular Sciences, 2025)
